Measured values: patent US11103478B2, “Anavex2-73 for the treatment of alzheimer's disease” (ANAVEX LIFE SCIENCES CORP., priority 2017, dated 2021)

Columns and labels:
[1] = Randomized, placebo-controlled single ascending dose Phase 1 study in healthy male volunteers; type: in vivo, human
Protocol: See Poster: A Phase 1 Dose Escalation Study to Investigate Safety, Tolerability, and Pharmacokinetics of ANAVEX2-73 in Healthy Male Subjects, CNS Summit 2014, Boca Raton, Fla., by Ole Voges, Ingo Weigmann, Norman Bitterlich, Christoph Schindler and Christopher Missling. […] Based on the frequency and intensity of […] adverse events (TEAEs) the maximum tolerable dose (MTD) and the minimum intolerable dose (MID) were defined as 55 mg and 60 mg, respectively.

[2] = tested on: mild-to-moderate Alzheimer's disease patients; assay: Phase 2a trial: auditory P300 event related potential (three-stimulus oddball paradigm); type: in vivo, human
Protocol: (§1) The 36-day multicenter randomized clinical trial included both male and female mild-to-moderate Alzheimer's disease patients. ANAVEX2-73 was administered to twelve subjects as an add-on therapy to the donepezil current standard of care. ANAVEX2-73 was administered according to a two-period on-off-on cross-over dosing regimen in which the subjects were administered ANAVEX2-73 for 12 days (1st period) followed by a 12-day wash-out period before being administered ANAVEX2-73 for a second 12-day period (2nd period). Those subjects that were administered ANAVEX2-73 by oral administration during the 1st period were administered ANAVEX2-73 intravenously during the 2nd period, and vice versa. About half of the subjects were administered a 30 mg oral dosage form while the other half of subjects were administered a 50 mg oral dosage form. The intravenous dosage was either 3 mg or 5 mg, with about half of the subjects administered 3 mg and the other half administered 5 mg.
Resting electroencephalographic (EEG) activity and event related potentials (EEG/ERP) were used to assess the cognitive effects of ANAVEX2-73 administration. Event related potentials (ERPs) are voltage changes time-locked to some physical or mental occurrence in ongoing electrical brain activity, as recorded by EEG. Event-related potentials (ERPs) provide a sensitive and reliable measure of the cognitive effects associated with early Alzheimer's disease. […] See for example, New Encycl. Neurosci., Oxford Academic Press, p. 13-18 (2009). For example, ERP tests on young presymptomatic individuals who carry mutations in the presenilin-1 and amyloid precursor protein genes show significant changes in ERP patterns years before the onset of behavioral symptoms and the development of Alzheimer's disease. See for example, Neurology 73, 1649-1655 (2009); Neurology 77, 469-475 (2011). […] For instance, ERP markers of cognitive function are increasingly altered in longitudinal studies on individuals with mild cognitive impairment (MCI) and Alzheimer's disease patients. See for example, Clin. Neurophysiol. 122, 1322-1326 (2011); Clin. Neurophysiol. 121, 194-199 (2010). […] See for example, Neurol. Neurochir. Pol. 35 Suppl 3, 37-43 (2001); Clin. Neuropharmacol. 25, 207-215 (2002); Neurosci. Biomed. Eng. 1, 34-39 (2013).
In particular, the auditory P300 component of the ERP has been widely applied in the study of age-related cognitive dysfunction because it is thought to reflect attentional and memory processes. Auditory P300 is a positive deflection occurring at about 300 ms from stimulus onset. It is generated by the activation of multiple neocortical and limbic regions. […]

[3] = tested on: mild-to-moderate Alzheimer's disease patients; assay: Phase 2a trial: EEG peak alpha frequency (PAF); type: in vivo, human; conditions: 12 patients, day 36
Protocol: as §1, with “About half of the subjects were administered a 30 mg oral dosage form while the other half of subjects were administered a 50 mg oral dosage form. The intravenous dosage was either 3 mg or 5 mg, with about half of the subjects administered 3 mg and the other half administered 5 mg.” left out
Subjects were tested using a three-stimulus oddball paradigm. […] Electroencephalographic (EEG) activity was recorded from seven electrode sites (Fz, Cz, Pz, F3, P3, F4, and P4) of the international 10-20 system using a COGNISION™ Headset (Neuronetrix). […]
FIG. 8 illustrates electroencephalographic (EEG) peak alpha frequency (PAF) data for twelve patients at baseline and day 36 following the on-off-on ANAVEX2-73 dosing regimen, as compared to a healthy control group. Electroencephalographic (EEG) peak alpha frequency (PAF), measured in Hz, is a distinctive individual “fingerprint” that has been correlated to cognitive performance and reflects a trait or state of cognitive preparedness. […]

[4] = tested on: mild-to-moderate Alzheimer's disease patients; assay: Phase 2a trial: MMSE and Cogstate scales, safety profile; type: in vivo, human
Protocol: as §1
The results for the twelve subject on-off-on dosing regimen of ANAVEX2-73, shown in FIGS. 5-9, were achieved without any dose optimization. […] An additional 20 subjects will be studied during the remainder of the Phase 2a clinical trial. Phase 2b clinical trials, involving an additional 26-week extension of daily oral dosage administration of ANAVEX2-73 is on-going.

[5] = tested on: patients with early signs of Alzheimer's disease; assay: Single-patient examples of intermittent dosing in early Alzheimer's disease (Examples 1-5); type: in vivo, human
Text: The following examples show uses of ANAVEX2-73 in the treatment of patients with Alzheimer's disease or presenting with the early signs of Alzheimer's disease. The clinical determination that a patient may have Alzheimer's disease or is presenting with early signs of Alzheimer's disease is well known in the art. By way of example, the following references (and all publications cited herein) are incorporated by reference herein in their entireties: Dementia: From Diagnosis to Management—A Functional Approach 1st Edition, Psychology Press (Feb. 17, 2009); Clinician's Guide to Psychological Assessment and Testing: With Forms and Templates for Effective Practice 1st Edition, Springer Publishing Company (Sep. 18, 2012); Neurodegener. Dis. Manag. 5(3), 191-201 (2015); Artif. Intell. Med. 64(1), 59-74 (2015); Clin. Chem. 60(12), 1585-1586 (2014); and Metabolism 64(3 Suppl 1), S47-50 (2014).
(§2) A person presents with early signs of Alzheimer's disease. They are orally administered a pharmaceutical composition containing 30 mg ANAVEX2-73 according to an intermittent dosing regimen where each cycle includes daily administration for 10 days (dosing period) followed by 10 days of no administration (resting period). The patient is administered 30 mg ANAVEX2-73 according to the intermittent dosing regimen for 6 months. Their loss of cognitive function stabilizes during that period.
(§3) A person presents with signs of early onset Alzheimer's disease. They are orally administered a pharmaceutical composition containing 50 mg ANAVEX2-73 according to an intermittent dosing regimen where each cycle includes daily administration for 10 days (dosing period) followed by 20 days of no administration (resting period). Their loss of cognitive function stabilizes during that period.
as §3, with “are” for “are orally”, “3” for “a pharmaceutical composition containing 50”, “mg of” for “mg”, “ANAVEX2-73 intravenously” for “ANAVEX2-73”, “5” for “10”, “period) for one year.” for “period).”
A person presents with signs of early onset Alzheimer's disease. They are administered 5 mg of ANAVEX2-73 intravenously according to an intermittent dosing regimen where each cycle includes daily administration for 14 days (dosing period) followed by 7 days of no administration (resting period) for one year. Their loss of cognitive function stabilizes during that period.
as §2, with “containing 50” for “containing 30”, “for 14” for “for 10”, “by 7” for “by 10”, “administered 50” for “administered 30”, “function is stabilized” for “function stabilizes”

sigma-1 receptor = sigma-1 receptor (Homo sapiens, UniProt Q99720); conditions: believed to bind; cited from earlier work
[6] = tested on: muscarinic acetylcholine receptors; conditions: believed to bind; cited from earlier work
[7] = tested on: amyloid β25-35 peptide (Aβ25-35) toxicity; conditions: cited from earlier work

Sequence of sigma-1 receptor (Q99720 whole entry, species assumed): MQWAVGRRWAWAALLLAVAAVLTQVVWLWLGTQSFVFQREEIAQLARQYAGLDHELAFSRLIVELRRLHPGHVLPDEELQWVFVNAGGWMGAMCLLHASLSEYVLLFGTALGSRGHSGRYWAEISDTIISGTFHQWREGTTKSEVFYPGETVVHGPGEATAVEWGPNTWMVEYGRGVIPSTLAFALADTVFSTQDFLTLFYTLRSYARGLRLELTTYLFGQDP

In the case of `CN(C)CC1CCOC1(c1ccccc1)c1ccccc1.Cl` (stereo not shown) [ANAVEX2-73, tetrahydro-N,N-dimethyl-2,2-diphenyl-3-furanmethanamine hydrochloride], the observed adverse events ([1]; human, in vivo) is reported as “moderate and reversible dizziness and headache”, the “QT interval and QTcB” value ([1]; human, in vivo, po) is reported as “did not reveal any clinically significant changes” and the “blood pressure, resting heart rate, vital signs and 12-lead ECG” value ([1]; human, in vivo, po) is reported as “did not show any clinically relevant or dose-dependent changes”. For the same molecule, the pharmacokinetics ([1]; human, in vivo, po) was “suitable for daily oral dosing”, the serious adverse events ([1]; human, in vivo, po) was “No serious adverse events occurred” and the “minimum intolerable dose (MID)” value ([1]; male, human, in vivo, po) was 60 mg. For the same molecule, the “maximum tolerable dose (MTD)” value ([1]; single oral dose, healthy male volunteers) was 55 mg, the “P300 ERP wave: measured cognitive performance vs baseline” value ([2]; 12 patients, day 36, on-off-on regimen (30/50 mg oral, 3/5 mg i.v.), add-on to donepezil) was “improved measured cognitive performance” and the “P300 amplitude, Percentage Increase Over Baseline Data” value ([2]; 12 patients, day 36 vs baseline, hydrochloride) was 38%. For the same molecule, the “P300 amplitude change vs historical donepezil at the 1 month time point” value ([2]; day 36 (1 month), change from baseline, donepezil data from the literature) was “about four times higher”, the “percent P300 amplitude change after 1 month vs historical donepezil after 6 months” value ([2]; day 36 (1 month), donepezil data from the literature) was “greater” and the “EEG peak alpha frequency (PAF) vs baseline” value [3] was “higher”. The “safety profile during Phase 2a” value ([4]; Phase 2a trial) was “consistent with the Phase 1 data”, the “Mini Mental State Examination (MMSE) and Cogstate scale changes” value ([4]; preliminary, 12 patients) was “consistent with the observed trend of the cognitive EEG/ERP effect” and the “loss of cognitive function” value ([5]; Example 1: person, 30 mg oral, 10 days on / 10 days off, 6 months) was “stabilizes”. The “loss of cognitive function” value ([5]; Example 2: person, 50 mg oral, 10 days on / 20 days off) was “stabilizes”, the “loss of cognitive function” value ([5]; Example 3: person, 3 mg intravenously, 5 days on / 20 days off, one year) was “stabilizes” and the “loss of cognitive function” value ([5]; Example 4: person, 5 mg intravenously, 14 days on / 7 days off, one year) was “stabilizes”. For the same molecule, the “loss of cognitive function” value ([5]; Example 5: person, 50 mg oral, 14 days on / 7 days off, 6 months) was “is stabilized”, the “affinity for sigma-1 receptor” value (sigma-1 receptor) was “low micromolar range” and the “affinity for muscarinic acetylcholine receptors” value [6] was “low micromolar range”. For the same molecule, the “hyperphosphorylation of Tau on physiological (AT-8) and pathological (AT-100) epitopes” value ([7]; in the dose-range tested) was “attenuated”, the “oxidative stress, caspases induction, cellular loss and learning and memory deficits” value ([7]; mice one week after i.c.v. injection of oligomeric Aβ25-35) was “attenuating” and the “Aβ25-35-induced P-Akt decrease and P-GSK-3β increase” value ([7]; mice, Aβ25-35) was “blocked”. The “Aβ25-35-induced endogenous Aβ1-42 seeding” value ([7]; mouse, in vivo) was “decrease”.
